# “And” between values parts separate entries of the source, which are not always exact repeats. Identical values can stand only once.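 Step 1: Grow cells in 96-well plates. Step 2: Expose to compound for 48 hours at 5 concentrations. Step 3: Interpolate endpoints linearly; if unreached, use highest concentration. GI50 is the concentration that inhibits growth by half. At the TGI there is no net growth.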
# Assays:
# Test in all cases: inhibition of tumour cell growth, NCI panel, 48 h
# HCT-15 colon = system: HCT-15 colon
# SK-OV-3 ovarian = system: SK-OV-3 ovarian
# LOX IMVI melanoma = system: LOX IMVI melanoma
# SNB-75 CNS = system: SNB-75 CNS
# MCF7 breast = system: MCF7 breast
# OVCAR-8 ovarian = system: OVCAR-8 ovarian
# A498 renal = system: A498 renal
# EKVX NSCLC = system: EKVX NSCLC
Compound,GI50 (HCT-15 colon),TGI (HCT-15 colon),GI50 (SK-OV-3 ovarian),TGI (SK-OV-3 ovarian),GI50 (LOX IMVI melanoma),TGI (LOX IMVI melanoma),GI50 (SNB-75 CNS),TGI (SNB-75 CNS),GI50 (MCF7 breast),TGI (MCF7 breast),GI50 (OVCAR-8 ovarian),TGI (OVCAR-8 ovarian),GI50 (A498 renal),TGI (A498 renal),GI50 (EKVX NSCLC),TGI (EKVX NSCLC)
O=c1[nH]cc(CO)c(=O)[nH]1,> 100 µM,> 100 µM,> 100 µM,> 100 µM,> 100 µM,> 100 µM,> 100 µM,> 100 µM,> 100 µM,> 100 µM,> 100 µM,> 100 µM,> 100 µM,> 100 µM,–,–
Cc1cc(NS(=O)(=O)c2ccc(NC(=O)COc3ccc(-c4cc5ccccc5[nH]4)cc3)cc2)no1,2.32 µM,7.35 µM,1.85 µM,3.55 µM,1.86 µM,5.18 µM,1.5 µM,4.68 µM,2.08 µM,4.69 µM,2.01 µM,4.77 µM,1.7 µM,6.58 µM,2.32 µM,8.45 µM
CCCCCCCCn1ccc2cc(NC(=O)Cn3cc(CN4CCC(C)CC4)nn3)ccc21,1.61 µM,3.15 µM,1.9 µM,3.7 µM,1.64 µM,3.05 µM,1.48 µM,2.82 µM,1.65 µM,3.25 µM,1.86 µM,3.81 µM,1.6 µM,3.27 µM,1.67 µM,3.66 µM
Cc1cc(C(=O)N2CCN(C)CC2)c2c(=O)n(-c3ccccc3)c(=O)n(CC(O)CN3CCN(c4ncccn4)CC3)c2n1 (stereo not given),> 100 µM,> 100 µM,> 100 µM,> 100 µM,> 100 µM,> 100 µM,> 100 µM,> 100 µM,> 100 µM,> 100 µM,–,–,> 100 µM,> 100 µM,> 100 µM,> 100 µM
O=c1c(-c2ccc3c(c2)OCO3)coc2c(CO)c(O)ccc12,2.35 µM,6.46 µM,2.41 µM,6.39 µM,1.28 µM,3.41 µM,2.39 µM,7.43 µM,2.72 µM,25.4 µM,4.42 µM,30.5 µM,1.76 µM,3.95 µM,2.79 µM,8.81 µM
Cc1ccn2c(-c3csc(Nc4cccc(O)c4)n3)c(C)nc2c1,0.273 µM,24 µM,1.04 µM,11.8 µM,–,–,0.225 µM,1.65 µM,0.311 µM,27.3 µM,0.611 µM,44.9 µM,0.926 µM,32.1 µM,–,–
COc1ccc(-c2nnc(Nc3nc(O)c(C4=c5cc(OC(F)(F)F)ccc5=NC4=O)s3)o2)cc1,20.4 µM,80.4 µM,17.4 µM,44 µM,16.3 µM,56.1 µM,15.3 µM,36.8 µM,39.7 µM,> 100 µM,22.7 µM,99.5 µM,–,–,31.6 µM,71.7 µM
COc1ccc(Oc2nc(Nc3ccc(N4CCOCC4)cc3)ncc2NC(=O)Nc2cc(OC)cc(OC)c2)cc1,15.4 µM,> 33.3 µM,7.86 µM,25.6 µM,3.59 µM,12.6 µM,1.65 µM,18.2 µM,4.97 µM,> 33.3 µM,4.65 µM,> 33.3 µM,4.75 µM,15 µM,7.56 µM,> 33.3 µM
Cc1ccc(-c2c3c(N)nc(-c4ccncc4)nc3nc3c2c(C)nn3-c2ccccc2)cc1,13.6 µM,> 37.5 µM,3.41 µM,10.2 µM,2.33 µM,14.5 µM,1.64 µM,15.2 µM,3.63 µM,24.4 µM,3.63 µM,> 37.5 µM,5.81 µM,> 37.5 µM,–,–
CCOC(=O)C1=C(C)NC(C)=C(C(=O)OCC)C1c1cc(Br)c(O)c(OC)c1,3.65 µM,14.2 µM,2.92 µM,7.38 µM,5.23 µM,18.6 µM,1.85 µM,7.14 µM,4.41 µM,23.9 µM,4.47 µM,38.9 µM,2.19 µM,7.13 µM,7.65 µM,34.4 µM
O=Cc1c[nH]c2ccc(-c3csc4ccccc34)cc12,2.98 µM,> 100 µM,5.34 µM,> 100 µM,3.87 µM,> 100 µM,1.25 µM,5.88 µM,3.48 µM,> 100 µM,3.47 µM,> 100 µM,2.86 µM,9.44 µM,2.75 µM,> 100 µM
C/C(=C\CCc1ccsc1)CC/C=C(\C)CCCN1CCN(CCO)CC1,2.42 µM,6.31 µM,7.58 µM,21 µM,1.8 µM,3.37 µM,2.45 µM,8.51 µM,2.85 µM,8.56 µM,4.84 µM,18.4 µM,2.45 µM,7.51 µM,–,–
CCN1CCN(CC(=O)Nc2nc3ccc(NCc4ccc(C)cc4)cc3s2)CC1,1.04 µM,2.47 µM,4.12 µM,12.4 µM,0.94 µM,1.86 µM,2.69 µM,9.42 µM,1.81 µM,8.41 µM,6.66 µM,16.5 µM,5.27 µM,11.3 µM,5.67 µM,13.8 µM
NC(Cc1ccc(O)cc1)C(=O)N/N=C/c1ccc(N(CCCl)CCCl)cc1 (stereo not given),38.6 µM,> 100 µM,47.9 µM,> 100 µM,5.73 µM,68.4 µM,12.6 µM,> 100 µM,7.52 µM,> 100 µM,5.58 µM,55 µM,9.78 µM,59.5 µM,24.2 µM,> 100 µM
COc1ccc(C2c3cc4c(c(OC)c3CC3OCC(=O)C32)OCO4)cc1OC (stereo not given),< 0.01 µM,> 100 µM,< 0.01 µM,> 100 µM,–,–,–,–,–,–,< 0.01 µM,46.9 µM,< 0.01 µM,> 100 µM,< 0.01 µM,> 100 µM
Cc1cc(N2CCN(C)CC2)nc(N(CCNc2ccnc3cc(Cl)ccc23)Cc2ccco2)n1,2.69 µM,10.9 µM,10.4 µM,22.1 µM,1.77 µM,3.56 µM,4.1 µM,19.6 µM,2.12 µM,6.89 µM,5.33 µM,19.8 µM,4.79 µM,17.3 µM,5.58 µM,19.7 µM

Compound,GI50 (HCT-15 colon),TGI (HCT-15 colon),GI50 (SK-OV-3 ovarian),TGI (SK-OV-3 ovarian),GI50 (LOX IMVI melanoma),TGI (LOX IMVI melanoma),GI50 (SNB-75 CNS),TGI (SNB-75 CNS),GI50 (MCF7 breast),TGI (MCF7 breast),GI50 (OVCAR-8 ovarian),TGI (OVCAR-8 ovarian),GI50 (A498 renal),TGI (A498 renal),GI50 (EKVX NSCLC),TGI (EKVX NSCLC)
CCOP(=O)(CCN1CCN(CCCCCOc2cc3c(cc2OC)C(=O)N2CCC[C@H]2C=N3)CC1)OCC,80 µM,> 100 µM,23.9 µM,99.8 µM,–,–,1.35 µM,8.85 µM,1.89 µM,23.8 µM,31.2 µM,> 100 µM,15 µM,43 µM,19.5 µM,47.8 µM
COC(=O)c1c2c(c(C)[n+]([O-])c1C)C(=O)C=C(NCc1ccc(Br)cc1)C2=O,0.167 µM,1.95 µM,1.52 µM,3.41 µM,0.07 µM,1.62 µM,1.58 µM,2.94 µM,0.255 µM,1.07 µM,–,–,0.904 µM,2.3 µM,0.763 µM,2.37 µM
Cc1ccc2c(n1)C(=O)C(Cl)=C(Nc1ccc(N3CCN(C)CC3)cc1)C2=O,1.84 µM,3.93 µM,13 µM,25.8 µM,1.78 µM,3.22 µM,2.11 µM,8.53 µM,2.04 µM,5.17 µM,1.85 µM,3.4 µM,12.8 µM,25.6 µM,1.73 µM,3.12 µM
CC(=O)Nc1cc(C(c2ccccc2)c2ccccc2)cc(C(c2ccccc2)c2ccccc2)c1C,7.12 µM,> 100 µM,> 100 µM,> 100 µM,7.98 µM,> 100 µM,21.4 µM,> 100 µM,4.77 µM,> 100 µM,> 100 µM,> 100 µM,6.24 µM,> 100 µM,3.23 µM,> 100 µM
O=S1CCN(Cc2ccc(-c3ccc4ncnc(Nc5ccc(OCc6ccccc6)c(F)c5)c4c3)o2)CC1,8.13 µM,> 25 µM,0.0713 µM,0.226 µM,6.39 µM,> 23.4 µM,> 13.1 µM,> 25 µM,6.89 µM,> 16.5 µM,11.4 µM,> 25 µM,3.68 µM,21.6 µM,0.212 µM,> 25 µM
CCOC(=O)c1c(C(F)(F)F)n([O-])c2ccc(Cl)cc2[n+]1=O,1.52 µM,3.16 µM,4.14 µM,16.1 µM,1.57 µM,3.08 µM,1.43 µM,5.36 µM,1.98 µM,4.24 µM,2.06 µM,3.9 µM,1.73 µM,3.93 µM,2.05 µM,5.14 µM
O=C(NC1CCNCC1)c1[nH]ncc1NC(=O)c1c(Cl)cccc1Cl,9.83 µM and 9.93 µM,> 100 µM,0.784 µM and 1.42 µM,> 100 µM,0.281 µM and 0.261 µM,> 100 µM,0.249 µM and 0.218 µM,0.766 µM and 0.674 µM,0.198 µM and 0.18 µM,> 100 µM,0.659 µM and 0.66 µM,> 100 µM,0.552 µM and 0.698 µM,1.77 µM and 1.78 µM,0.998 µM,> 10 µM
Nc1cccc2c1CN(C1CCC(=O)NC1=O)C2=O (stereo not given),> 100 µM,> 100 µM,> 100 µM,> 100 µM,> 100 µM,> 100 µM,> 100 µM,> 100 µM,> 100 µM,> 100 µM,> 100 µM,> 100 µM,> 100 µM,> 100 µM,> 100 µM,> 100 µM
CS(=O)/C(C#N)=C\C=C\c1cccc(Cl)c1 (stereo not given),1.11 µM,4.04 µM,10.6 µM,26.4 µM,1.31 µM,2.73 µM,7.11 µM,37.4 µM,0.579 µM,5.72 µM,3.78 µM,17.9 µM,12.4 µM,25 µM,3.66 µM,16.7 µM
O=C1c2ccccc2C(=O)c2c(NCCNCCO)ccc(NCCNCCO)c21,10.1 µM and 14.8 µM and 11.2 µM,> 100 µM,1.26 µM and 1.45 µM and 2.06 µM,11.5 µM and 9.32 µM and 11.8 µM,0.426 µM and 0.941 µM and 0.545 µM,4.19 µM and 6.13 µM and 6.12 µM,0.649 µM and 0.473 µM and 0.386 µM,3.43 µM and 2.52 µM and 2.46 µM,0.0479 µM and 0.0696 µM and 0.069 µM,0.948 µM and 2.39 µM and 4.99 µM,0.349 µM and 0.718 µM and 0.821 µM,6.5 µM and 6.81 µM and 6.08 µM,0.193 µM and 1.37 µM and 0.565 µM,1.11 µM and 7 µM and 3.61 µM,1.97 µM and 3.65 µM,10.4 µM and 26.3 µM
O=c1c2cc(Br)ccc2[nH]c(=S)n1-c1ccccc1,–,> 100 µM,–,> 100 µM,–,> 100 µM,–,> 100 µM,–,–,–,> 100 µM,–,> 100 µM,–,> 100 µM
COc1cc(-c2nccc3[nH]c(-c4cccc5[nH]ccc45)nc23)cc(OC)c1OC,< 0.01 µM,12 µM,< 0.01 µM,14.8 µM,< 0.01 µM,5.98 µM,< 0.01 µM,16.5 µM,< 0.01 µM,14.4 µM,< 0.01 µM,14.1 µM,–,–,0.0186 µM,22 µM
C[C@@H](Oc1cc(-c2cnn(C3CC4(CNC4)C3)c2)cnc1N)c1c(Cl)ccc(F)c1Cl,4.04 µM,15.1 µM,7.98 µM,21.1 µM,1.96 µM,6.79 µM,2.44 µM,9.29 µM,0.532 µM,5 µM,10.4 µM,24.3 µM,1.1 µM,4.81 µM,–,–
Cc1ccc(-n2nnc3c(sc4ccccc43)c2=O)cc1,> 100 µM,> 100 µM,3.54 µM,19.4 µM,4.09 µM,> 100 µM,3.08 µM,16.3 µM,43.7 µM,> 100 µM,6.1 µM,> 100 µM,30.9 µM,> 100 µM,–,–
O=[N+]([O-])c1ccc(Oc2cccc(C(F)(F)F)c2)c([N+](=O)[O-])c1,2.41 µM,10.3 µM,–,–,0.447 µM,10.8 µM,5.11 µM,37.9 µM,2.81 µM,8.33 µM,2.48 µM,8.16 µM,12.7 µM,25.3 µM,7.11 µM,22.5 µM
COc1cc(C2CC(=O)c3c(C)nn(-c4nc5ccccc5[nH]4)c3C2)cc(OC)c1OC (stereo not given),> 100 µM,> 100 µM,4.12 µM,> 100 µM,–,–,1.72 µM,3.46 µM,> 100 µM,> 100 µM,–,–,7.06 µM,> 100 µM,–,–

# From PubChem BioAssay (NCI)
